Active and inactive are the calls of the source. No cut-off for these calls is given here.
Key:
Acetylcholinesterase [1] = target: T1, Acetylcholinesterase (Homo sapiens, UniProt P22303); test: Time dependent inhibition of human AChE using acetylthiocholine iodide as substrate preincubated for 5 mins followed by substrate addition and measured for 2 mins by spectrophotometry based Ellman's method; conditions: time 7.0 min
Cholinesterase [2] = target: T2, Cholinesterase (Homo sapiens, UniProt P06276); test: Inhibition of human BChE using butyrylthiocholine iodide as substrate preincubated for 5 mins followed by substrate addition and measured for 2 mins by spectrophotometry based Ellman's method
T2 sequence (P06276 whole entry): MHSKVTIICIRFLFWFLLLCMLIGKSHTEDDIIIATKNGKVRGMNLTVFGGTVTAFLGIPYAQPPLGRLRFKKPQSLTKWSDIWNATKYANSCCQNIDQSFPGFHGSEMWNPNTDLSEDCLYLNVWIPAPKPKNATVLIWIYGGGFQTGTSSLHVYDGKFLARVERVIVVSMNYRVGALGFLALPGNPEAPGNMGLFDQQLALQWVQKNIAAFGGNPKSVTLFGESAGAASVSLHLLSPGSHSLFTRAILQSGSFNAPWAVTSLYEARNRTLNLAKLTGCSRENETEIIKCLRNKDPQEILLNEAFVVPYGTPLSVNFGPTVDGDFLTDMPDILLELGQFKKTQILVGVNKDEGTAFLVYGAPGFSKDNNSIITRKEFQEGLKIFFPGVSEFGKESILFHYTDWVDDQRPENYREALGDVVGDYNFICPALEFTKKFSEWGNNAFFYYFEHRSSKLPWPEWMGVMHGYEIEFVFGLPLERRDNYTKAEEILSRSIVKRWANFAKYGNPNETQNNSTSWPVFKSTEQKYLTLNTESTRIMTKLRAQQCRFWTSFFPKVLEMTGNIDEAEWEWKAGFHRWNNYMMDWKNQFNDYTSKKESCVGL

Acetylcholinesterase [3] = target: T1, Acetylcholinesterase; test: Inhibition of human AChE using acetylthiocholine iodide as substrate preincubated for 5 mins followed by substrate addition and measured for 2 mins by spectrophotometry based Ellman's method
Cholinesterase [4] = target: T2, Cholinesterase; test: Time dependent inhibition of human BChE using butyrylthiocholine iodide as substrate preincubated for 5 mins followed by substrate addition and measured for 2 mins by spectrophotometry based Ellman's method; conditions: time 7.0 min
Cholinesterase [5] = target: T2, Cholinesterase; test: Binding affinity to human BChE assessed as half life incubated for 1 hr by Ellman's method
Cholinesterase [6] = target: T2, Cholinesterase; test: Binding affinity to human BChE assessed as decarbamoylation rate constant at 25 degree C incubated for 1 hr by Ellman's method
Cholinesterase [7] = target: T2, Cholinesterase; test: Binding affinity to human BChE assessed as gibbs free energy change
HepG2 = test: Cytotoxicity against human HepG2 cells assessed as inhibition of cell growth measured after 48 hrs by MTS assay; type: functional, cell-based; conditions: HepG2, 48 h
Cholinesterase [8] = target: T2, Cholinesterase; test: Binding affinity to human BChE assessed as pseudo-first order inhibition rate at 20 nM by Ellman's method
Cholinesterase [9] = target: T2, Cholinesterase; test: Binding affinity to human BChE assessed as pseudo-first order inhibition rate at 5 nM by Ellman's method
Cholinesterase [10] = target: T2, Cholinesterase; test: Binding affinity to human BChE assessed as carbamoylation rate constant by Ellman's method
[11] = target: Cholinesterases; ACHE & BCHE (Homo sapiens) (UniProt P06276+P22303); test: Selectivity ratio of IC50 for human AChE to IC50 for human BChE; type: protein assay
Cholinesterases; ACHE & BCHE (Homo sapiens), sequence (P06276 whole entry, looked up): as the sequence (P06276 whole entry) above
Cholinesterases; ACHE & BCHE (Homo sapiens), sequence (P22303 whole entry, looked up): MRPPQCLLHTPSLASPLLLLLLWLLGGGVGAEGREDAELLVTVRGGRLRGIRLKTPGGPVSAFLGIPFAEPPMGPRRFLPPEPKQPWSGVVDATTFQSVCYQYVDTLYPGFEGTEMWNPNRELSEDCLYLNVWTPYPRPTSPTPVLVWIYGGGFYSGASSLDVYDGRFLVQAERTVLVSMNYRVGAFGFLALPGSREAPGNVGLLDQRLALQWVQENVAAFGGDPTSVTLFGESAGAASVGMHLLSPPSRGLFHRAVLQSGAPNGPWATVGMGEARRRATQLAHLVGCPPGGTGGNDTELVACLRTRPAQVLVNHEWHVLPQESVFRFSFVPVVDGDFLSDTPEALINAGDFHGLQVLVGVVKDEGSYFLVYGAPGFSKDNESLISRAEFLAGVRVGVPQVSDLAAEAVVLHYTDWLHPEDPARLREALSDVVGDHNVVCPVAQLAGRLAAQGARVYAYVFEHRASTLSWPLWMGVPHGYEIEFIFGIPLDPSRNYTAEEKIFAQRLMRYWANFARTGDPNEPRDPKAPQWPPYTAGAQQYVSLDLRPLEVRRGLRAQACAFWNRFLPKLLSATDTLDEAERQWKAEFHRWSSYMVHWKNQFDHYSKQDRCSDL

Cholinesterase [12] = target: T2, Cholinesterase; test: Binding affinity to human BChE assessed as pseudo-first order inhibition rate at 50 nM by Ellman's method
Cholinesterase [13] = target: T2, Cholinesterase; test: Binding affinity to human BChE assessed as pseudo-first order inhibition rate at 10 nM by Ellman's method
Cholinesterase [14] = target: T2, Cholinesterase; test: Binding affinity to human BChE assessed as inhibition constant
SH-SY5Y = test: Cytotoxicity against human SH-SY5Y cells assessed as inhibition of cell growth measured after 48 hrs by MTS assay; type: functional, cell-based
Acetylcholinesterase [15] = target: T1, Acetylcholinesterase; test: Inhibition of human AChE assessed as residual activity using acetylthiocholine iodide as substrate at 100 uM preincubated for 30 mins followed by substrate addition and measured for 2 mins by spectrophotometry based Ellman's method relative to control; conditions: time 32.0 min
Acetylcholinesterase [16] = target: T1, Acetylcholinesterase; test: Time dependent inhibition of human AChE using acetylthiocholine iodide as substrate preincubated for 30 mins followed by substrate addition and measured for 2 mins by spectrophotometry based Ellman's method; conditions: time 32.0 min
Cholinesterase [17] = target: T2, Cholinesterase; test: Time dependent inhibition of human BChE using butyrylthiocholine iodide as substrate preincubated for 30 mins followed by substrate addition and measured for 2 mins by spectrophotometry based Ellman's method; conditions: time 32.0 min
Cholinesterase [18] = target: T2, Cholinesterase; test: Inhibition of human BChE using butyrylthiocholine iodide as substrate preincubated for 30 mins followed by substrate addition and measured for 2 mins by spectrophotometry based Ellman's method
Cholinesterase [19] = target: T2, Cholinesterase; test: Binding affinity to human BChE plasma assessed as appearance of fluorescent bands at 10 uM incubated for 30 mins in presence of ethopropazine by Western blot analysis; type: cell-free
Cholinesterase [20] = target: T2, Cholinesterase; test: Binding affinity to recombinant human BChE assessed as appearance of fluorescent bands at 10 uM incubated for 4 hrs by Western blot analysis
Cholinesterase [21] = target: T2, Cholinesterase; test: Binding affinity to human BChE plasma assessed as appearance of fluorescent bands at 10 uM incubated for 30 mins in presence of BW284c51 by Western blot analysis; type: cell-free
Acetylcholinesterase [22] = target: T1, Acetylcholinesterase; test: Binding affinity to recombinant human AChE assessed as appearance of fluorescent bands at 10 uM incubated for 4 hrs in presence of BW284c51 by Western blot analysis
Cholinesterase [23] = target: T2, Cholinesterase; test: Binding affinity to human BChE plasma assessed as appearance of fluorescent bands at 10 uM incubated for 30 mins in presence of isoOMPA by Western blot analysis; type: cell-free
Acetylcholinesterase [24] = target: T1, Acetylcholinesterase; test: Binding affinity to recombinant human AChE assessed as appearance of fluorescent bands at 10 uM incubated for 4 hrs by Western blot analysis
Cholinesterase [25] = target: T2, Cholinesterase; test: Binding affinity to human BChE plasma assessed as appearance of fluorescent bands at 10 uM incubated for 30 mins by Western blot analysis; type: cell-free

T1 sequence (P22303 whole entry): as the sequence (P22303 whole entry, looked up) above

SMILES	inhibition (Acetylcholinesterase [1])	IC50 (Cholinesterase [2]) [nM]	IC50 (Acetylcholinesterase [3]) [nM]	inhibition (Cholinesterase [4])	further results
CN(CCC1CCCCCC1)Cc1c[nH]c2c(OC(=O)N3CCCCC3)cccc12	Active	5.28	529	–	–
C#CCN(CC)C(=O)Oc1cccc2c(CN(C)CCC3CCCCCC3)c[nH]c12	Active	21.9	7530	Active	–
CN(CCC1CCCCCC1)Cc1c[nH]c2c(OC(=O)N(C)C(C)(C)C)cccc12	inactive	147	10000	inactive	–
C#CCCCN(C)C(=O)Oc1cccc2c(CN(C)CCC3CCCCCC3)c[nH]c12	Active	12.3	1080	Active	T1/2 (Cholinesterase [5]): 46.5 h; K (Cholinesterase [6]): 0.015 h⁻¹; deltaG (Cholinesterase [7]): 24.8 kcal/mol
CN(CCC1CCCCCC1)Cc1c[nH]c2c(OC(=O)N(C)C)cccc12	Active	1.76	559	Active	IC50 (HepG2): 7100 nM; Kobs (Cholinesterase [8]): 1.85 min⁻¹; Kobs (Cholinesterase [9]): 0.447 min⁻¹; K (Cholinesterase [10]): 0.177 M⁻¹ s⁻¹; Ratio IC50 [11]: 300; Kobs (Cholinesterase [12]): 3.75 min⁻¹; Kobs (Cholinesterase [13]): 0.677 min⁻¹; T1/2 (Cholinesterase [5]): 13 h; Ki (Cholinesterase [14]): 1.05 nM; IC50 (SH-SY5Y): 5800 nM; K (Cholinesterase [6]): 0.053 h⁻¹; deltaG (Cholinesterase [7]): 24 kcal/mol
CN(CCC1CCCCCC1)Cc1c[nH]c2c(OC(=O)N(C)Cc3ccccc3)cccc12	Active	11.6	531	Active	T1/2 (Cholinesterase [5]): 92.2 h; K (Cholinesterase [6]): 0.007 h⁻¹; deltaG (Cholinesterase [7]): 25.2 kcal/mol
C#CCN(C)C(=O)Oc1cccc2c(CN(C)CCC3CCCCCC3)c[nH]c12	Active	7.75	340	–	T1/2 (Cholinesterase [5]): 49 h; K (Cholinesterase [6]): 0.014 h⁻¹; deltaG (Cholinesterase [7]): 24.8 kcal/mol
CC(C)N(C(=O)Oc1cccc2c(CN(C)CCC3CCCCCC3)c[nH]c12)C(C)C	inactive	230	4630	inactive	–
CC(C)N(C(=O)Oc1cccc2cc[nH]c12)C(C)C	–	–	–	–	Activity (Acetylcholinesterase [15]): 66.5%; inhibition (Acetylcholinesterase [16]): inactive; inhibition (Cholinesterase [17]): inactive; IC50 (Cholinesterase [18]): 12800 nM
CN(C)C(=O)Oc1cccc2cc[nH]c12	–	–	–	–	Activity (Acetylcholinesterase [15]): 2.4%; inhibition (Acetylcholinesterase [16]): Active; inhibition (Cholinesterase [17]): Active; IC50 (Cholinesterase [18]): 1660 nM
CN(CCC1CCCCCC1)Cc1c[nH]c2c(OC(=O)N(C)N(C)C)cccc12	Active	13.2	5560	Active	–
CN(CCC1CCCCCC1)Cc1c[nH]c2cc(OC(=O)N(C)C)ccc12	Active	45.6	6720	Active	–
CCN(CC)C(=O)Oc1cccc2c(CN(C)CCC3CCCCCC3)c[nH]c12	inactive	61	5590	Active	T1/2 (Cholinesterase [5]): 318 h; K (Cholinesterase [6]): 0.002 h⁻¹; deltaG (Cholinesterase [7]): 25.9 kcal/mol
C#CCCCCCCCCCN(C)C(=O)Oc1cccc2c(CN(C)CCC3CCCCCC3)c[nH]c12	Active	3.77	123	Active	Activity (Cholinesterase [19]): inactive; Activity (Cholinesterase [20]): Active; Activity (Cholinesterase [21]): inactive; Activity (Acetylcholinesterase [22]): inactive; Activity (Cholinesterase [23]): inactive; Activity (Acetylcholinesterase [24]): Active; Activity (Cholinesterase [25]): Active
CN(CCC1CCCCCC1)Cc1c[nH]c2c(O)cccc12	–	373	11600	–	–
CCN(C)C(=O)Oc1cccc2cc[nH]c12	–	–	–	–	Activity (Acetylcholinesterase [15]): 56.2%; inhibition (Acetylcholinesterase [16]): inactive; inhibition (Cholinesterase [17]): Active; IC50 (Cholinesterase [18]): 1390 nM
CON(C)C(=O)Oc1cccc2c(CN(C)CCC3CCCCCC3)c[nH]c12	inactive	158	1100	–	–
CC(C)N(C(=O)Oc1ccc2c(CN(C)CCC3CCCCCC3)c[nH]c2c1)C(C)C	inactive	86.2	337	inactive	–
CCN(C)C(=O)Oc1cccc2c(CN(C)CCC3CCCCCC3)c[nH]c12	Active	10.4	6820	Active	–
O=C(Oc1cccc2cc[nH]c12)N1CCOCC1	–	–	–	–	Activity (Acetylcholinesterase [15]): 19.3%; inhibition (Cholinesterase [17]): inactive; IC50 (Cholinesterase [18]): 2390 nM
C#CCN(C(=O)Oc1cccc2c(CN(C)CCC3CCCCCC3)c[nH]c12)C(C)C	inactive	80.5	5350	inactive	–
CN(CCC1CCCCCC1)Cc1c[nH]c2c(OC(=O)N3CCOCC3)cccc12	Active	11.4	3580	–	–
C#CCN(C)C(=O)Oc1ccc2c(CN(C)CCC3CCCCCC3)c[nH]c2c1	inactive	10.2	1460	inactive	–
C#CCN(CC#C)C(=O)Oc1cccc2c(CN(C)CCC3CCCCCC3)c[nH]c12	Active	32.8	464	–	T1/2 (Cholinesterase [5]): 11.2 h; K (Cholinesterase [6]): 0.062 h⁻¹; deltaG (Cholinesterase [7]): 24 kcal/mol
CC(C)N(C)C(=O)Oc1cccc2c(CN(C)CCC3CCCCCC3)c[nH]c12	Active	114	2830	Active	–

From ChEMBL document CHEMBL5331096, “Pseudo-irreversible butyrylcholinesterase inhibitors: Structure-activity relationships, computational and crystallographic study of the N-dialkyl O-arylcarbamate warhead” (Eur J Med Chem, 2023)
